Data taken from US12257247B2 (Monte Rosa Therapeutics AG, priority 2023, dated 2025).
Like-named read-outs stand apart in the source and are kept apart here.

Target: T1, VAV1 (Homo sapiens, UniProt P15498+Q96SW2)
T1 construct: A heterozygous VAV1 C-terminal HiBiT knock-in pool was generated at Monte Rosa Therapeutics from a clonal Jurkat cell; endogenous in cells; host or cells: Jurkat clone stably expressing LgBiT, homozygous GSPT1-G575N; heterozygous VAV1-HiBiT knock-in pool
Test: VAV1 degradation activity, VAV1-HiBiT knock-in Jurkat luminescence assay (Example A, Table 1)
Type: cell-based
Conditions: VAV1-HiBiT knock-in Jurkat cells, luminescence read at 6 and 24 hours; for Dmax: Jurkat
Protocol: Cells were plated at 10,000 cells per well using Multiflo (BioTek) or Multi Drop Combi (Thermo Fisher) in 384-well white solid bottom plates (Corning, 3570BC) in 25 ul volume in RPMI 1640 media (Thermo Fischer, 22400105) containing 10% FBS (Corning, 35-075-CV), 1% Penicillin/Streptomycin (ThermoFisher Scientific, 15140-122), and 1% Endurazine (Nano-Glo Endurazine Live Cell Substrate (Promega, N2571)). Cells were incubated for ˜16 hours at 37° C., 5% CO2. 25 nL of a compound at 10 μM were dosed into the plate using an Echo® 650 liquid handler (Labcyte). Cells were incubated at 37° C., 5% CO2 and signal was read at 6 and 24 hours after compound addition on a Pherastar FSX using “LUM plus” optic module.
Analysis was performed in Scinamic (Scinamic, Cambridge, MA). Luminescence response (R) was calculated by the formula: response=100*(S−N)/(P−N) where S is the signal of the well, N and P the mean negative and positive control values respectively of the same plate. The luminescence response was then fitted in Scinamic using a 3-parameter agonist logistic fit (hillslope=1, EC50>0, top/bottom unconstrained).

[1] = read-out: VAV1 DC50 (nM), class

Row | Structure (SMILES) | Dmax (read-out: VAV1 Dmax %) [%] | Dmax (read-out: VAV1 Dmax %, class) [%] | DC50 (read-out: VAV1 DC50) [nM] | DC50 [1] [nM] | VAV1 Dmax % [%]
1 | O=C1CCC(c2c(F)ccc(-c3ccc(Cn4ccccc4=O)cc3)c2Cl)C(=O)N1 (stereo not shown) [Compound 143, 3-(2-chloro-4-fluoro-4′-((2-oxopyridin-1(2H)-yl)methyl)-[1,1′-biphenyl]-3-yl)piperidine-2,6-dione] | 55 | < 60 | 6160 | > 1000 | 
2 | Cn1ccc(COc2ccc(-c3ccc(F)c(C4CCC(=O)NC4=O)c3Cl)cc2)n1 (stereo not shown) [Compound 144, 3-(2-chloro-4-fluoro-4′-((1-methyl-1H-pyrazol-3-yl)methoxy)-[1,1′-biphenyl]-3-yl)piperidine-2,6-dione] | 65.3 | 60 to 90 | 248 | 100 to 1000 | 
3 | Cn1ccc(COc2ccc(-c3ccc(Cl)c(C4CCC(=O)NC4=O)c3F)cc2)n1 (stereo not shown) [Compound 145, 3-(4-chloro-2-fluoro-4′-((1-methyl-1H-pyrazol-3-yl)methoxy)-[1,1′-biphenyl]-3-yl)piperidine-2,6-dione] | 55.5 | < 60 | 13800 | > 1000 | 
4 | Cn1ccc(COc2ccc(-c3ccc(Cl)c(C4CCC(=O)NC4=O)c3Cl)cc2)n1 (stereo not shown) [Compound 146, 3-(2,4-dichloro-4′-((1-methyl-1H-pyrazol-3-yl)methoxy)-[1,1′-biphenyl]-3-yl)piperidine-2,6-dione] | 81.5 | 60 to 90 | 8400 | > 1000 | 
5 | O=C1CCC(c2c(F)ccc(-c3ccc(Cn4ccccc4=O)cc3)c2F)C(=O)N1 (stereo not shown) [Compound 147, 3-(2,4-difluoro-4′-((2-oxopyridin-1(2H)-yl)methyl)-[1,1′-biphenyl]-3-yl)piperidine-2,6-dione] | 33.3 | < 60 | ≥ 10000 | > 1000 | 33.28
6 | COc1ccc(-c2ccc(F)c(C3CCC(=O)NC3=O)c2F)cc1C (stereo not shown) [Compound 148] | 21.4 | < 60 | ≥ 10000 | > 1000 | 
7 | O=C1CCC(c2cccc(-c3ccc(Cn4ccccc4=O)cc3)c2F)C(=O)N1 (stereo not shown) [Compound 149, 3-(2-fluoro-4′-((2-oxopyridin-1(2H)-yl)methyl)-[1,1′-biphenyl]-3-yl)piperidine-2,6-dione] | 89.6 | 60 to 90 | 91.5 | ≤ 100 | 
8 | Cn1ccc(COc2ccc(-c3cccc(C4CCC(=O)NC4=O)c3F)cc2)n1 (stereo not shown) [Compound 150, 3-(2-fluoro-4′-((1-methyl-1H-pyrazol-3-yl)methoxy)-[1,1′-biphenyl]-3-yl)piperidine-2,6-dione] | 84.2 | 60 to 90 | 48 | ≤ 100 | 
9 | Cn1ccc(COc2ccc(-c3cccc(C4CCC(=O)NC4=O)c3)cc2)n1 (stereo not shown) [Compound 151, 3-(4′-((1-methyl-1H-pyrazol-3-yl)methoxy)-[1,1′-biphenyl]-3-yl)piperidine-2,6-dione] | 39.8 | < 60 | ≥ 10000 | > 1000 | 
10 | Cc1cc(OCc2ccn(C)n2)ccc1-c1ccc(Cl)c(C2CCC(=O)NC2=O)c1 (stereo not shown) [Compound 152] | 8.11 | < 60 | ≥ 10000 | > 1000 | 
11 | Cn1ccc(COc2ccc(-c3ccc(Cl)c(C4CCC(=O)NC4=O)c3)c(Cl)c2)n1 (stereo not shown) [Compound 153, 3-(2′,4-dichloro-4′-((1-methyl-1H-pyrazol-3-yl)methoxy)-[1,1′-biphenyl]-3-yl)piperidine-2,6-dione] | 1.26 | < 60 | ≥ 10000 | > 1000 | 
12 | Cn1ccc(COc2ccc(-c3cccc(C4CCC(=O)NC4=O)c3Cl)cc2)n1 (stereo not shown) [Compound 154, 3-(2-chloro-4′-((1-methyl-1H-pyrazol-3-yl)methoxy)-[1,1′-biphenyl]-3-yl)piperidine-2,6-dione] | 97 | > 90 | 18.7 | ≤ 100 | 
13 | Cc1cc(-c2cccc(C3CCC(=O)NC3=O)c2Cl)ccc1OCCN1CCOCC1 (stereo not shown) [Compound 155, 3-(2-chloro-3′-methyl-4′-(2-morpholinoethoxy)-[1,1′-biphenyl]-3-yl)piperidine-2,6-dione] | 92.7 | > 90 | 14.9 | ≤ 100 | 
14 | O=C1CCC(c2cccc(-c3ccc(Cn4ccccc4=O)cc3)c2Cl)C(=O)N1 (stereo not shown) [Compound 156, 3-(2-chloro-4′-((2-oxopyridin-1(2H)-yl)methyl)-[1,1′-biphenyl]-3-yl)piperidine-2,6-dione] | 92 | > 90 | 26 | ≤ 100 | 
15 | Cn1ccc(COc2ccc(-c3cc(C#N)cc(C4CCC(=O)NC4=O)c3Cl)cc2)n1 (stereo not shown) [Compound 157] | 20 | < 60 | ≥ 10000 | > 1000 | 
16 | Cn1ccc(=O)n1Cc1ccc(-c2cccc(C3CCC(=O)NC3=O)c2Cl)cc1 (stereo not shown) [Compound 158, 3-(2-chloro-4′-((2-methyl-5-oxo-2,5-dihydro-1H-pyrazol-1-yl)methyl)-[1,1′-biphenyl]-3-yl)piperidine-2,6-dione] | 81.7 | 60 to 90 | 74.3 | ≤ 100 | 
17 | O=C1CCC(c2cccc(-c3ccc(Cc4cnccn4)cc3)c2Cl)C(=O)N1 (stereo not shown) [Compound 159, 3-(2-chloro-4′-(pyrazin-2-ylmethyl)-[1,1′-biphenyl]-3-yl)piperidine-2,6-dione] | 96 | > 90 | 14.8 | ≤ 100 | 
18 | Cn1ccc(OCc2ccc(-c3cccc(C4CCC(=O)NC4=O)c3Cl)cc2)n1 (stereo not shown) [Compound 160, 3-(2-chloro-4′-(((1-methyl-1H-pyrazol-3-yl)oxy)methyl)-[1,1′-biphenyl]-3-yl)piperidine-2,6-dione] | 94.5 | > 90 | 18.5 | ≤ 100 | 
19 | O=C1CCC(c2cccc(-c3ccc(N4CCCCC4=O)cc3)c2Cl)C(=O)N1 (stereo not shown) [Compound 161, 3-(2-chloro-4′-(2-oxopiperidin-1-yl)-[1,1′-biphenyl]-3-yl)piperidine-2,6-dione] | 95.4 | > 90 | 10.1 | ≤ 100 | 
20 | O=C1CCC(c2cccc(-c3ccc(N4CCCC4=O)cc3)c2Cl)C(=O)N1 (stereo not shown) [Compound 162, 3-(2-chloro-4′-(2-oxopyrrolidin-1-yl)-[1,1′-biphenyl]-3-yl)piperidine-2,6-dione] | 73.1 | 60 to 90 | 283 | 100 to 1000 | 
21 | O=C1CCC(c2cccc(-c3ccc(N4CCC4=O)cc3)c2Cl)C(=O)N1 (stereo not shown) [Compound 163, 3-(2-chloro-4′-(2-oxoazetidin-1-yl)-[1,1′-biphenyl]-3-yl)piperidine-2,6-dione] | 44.7 | < 60 | ≥ 10000 | > 1000 | 
22 | Cn1ccc(-c2ccc(-c3cccc(C4CCC(=O)NC4=O)c3Cl)cc2)n1 (stereo not shown) [Compound 164, 3-(2-chloro-4′-(1-methyl-1H-pyrazol-3-yl)-[1,1′-biphenyl]-3-yl)piperidine-2,6-dione] | 71.9 | 60 to 90 | 542 | 100 to 1000 | 
23 | CC(Oc1ccccn1)c1ccc(-c2cccc(C3CCC(=O)NC3=O)c2Cl)cc1 (stereo not shown) [Compound 165, 3-(2-chloro-4′-(1-(pyridin-2-yloxy)ethyl)-[1,1′-biphenyl]-3-yl)piperidine-2,6-dione] | 90.2 | > 90 | 47.7 | ≤ 100 | 
24 | O=C1CCC(c2cccc(-c3ccc(N4CCC(Cn5ccccc5=O)CC4)cc3)c2Cl)C(=O)N1 (stereo not shown) [Compound 166, 3-(2-chloro-4′-(4-((2-oxopyridin-1(2H)-yl)methyl)piperidin-1-yl)-[1,1′-biphenyl]-3-yl)piperidine-2,6-dione] | 61.5 | 60 to 90 | 517 | 100 to 1000 | 
25 | O=C1CCC(c2cccc(-c3ccc(OCc4c[nH]cn4)cc3)c2Cl)C(=O)N1 (stereo not shown) [Compound 167, 3-(4′-((1H-imidazol-4-yl)methoxy)-2-chloro-[1,1′-biphenyl]-3-yl)piperidine-2,6-dione] | 87.3 | 60 to 90 | 38.5 | ≤ 100 | 
26 | O=C1CCC(c2cccc(-c3ccc(CN4CCCCC4=O)cc3)c2Cl)C(=O)N1 (stereo not shown) [Compound 168, 3-(2-chloro-4′-((2-oxopiperidin-1-yl)methyl)-[1,1′-biphenyl]-3-yl)piperidine-2,6-dione] | 91.5 | > 90 | 18.8 | ≤ 100 | 
27 | O=C1CCC(c2cccc(-c3ccc(Cc4ccccn4)cc3)c2Cl)C(=O)N1 (stereo not shown) [Compound 169, 3-(2-chloro-4′-(pyridin-2-ylmethyl)-[1,1′-biphenyl]-3-yl)piperidine-2,6-dione] | 98 | > 90 | 5.59 | ≤ 100 | 
